Measured values from patent publication EP2921486B1, “Compositions and methods for treating beta-amyloid related diseases” (American Life Science Pharmaceuticals, Inc., priority 2009, dated 2011).
Like-named read-outs stand apart in the source and are kept apart here.

Columns and labels:
[1] = test system: Aβ(40) and Aβ(42); assay: Brain, CSF and plasma Aβ ELISA after once-a-day oral gavage for one week (Example 9); format: in vivo; details: guinea pigs
Source text: (§1) Guinea Pigs. Guinea Pigs (Harley strain, average weight 400 g corresponding to animals about 6 weeks old) were obtained from Charles River (Wilmington, MA). The animals were given free access to standard chow and water before and during the experiment.
(§2) Gavage Formulation: Delivering a drug by gavage offers the advantage of accurate dosing but is traumatic and thus only suitable for relatively short dosing periods. Gavage delivery was used for the guinea pig work. E64d was resuspended in DMSO at indicated concentrations (see Figures, and below) and guinea pigs were gavaged daily using a feeding tube. Vehicle control animals were provided DMSO alone.
(§3) Guinea Pig Gavage Dosing: Guinea pigs were gavaged daily for one week. Guinea pigs were lightly anesthetized with isoflurane prior to gavaging. 250 µl of compound solution was gavaged daily per animal and animals were sacrificed 4 hrs after the last dosing.

[2] = test system: brain cathepsin B; assay: Brain cathepsin B activity after once-a-day oral gavage (fluorometric kit); format: in vivo; details: guinea pigs, once-a-day oral administration
Source text: as §1, §2, §3
The brain cathepsin B activity in guinea pigs was measured as follows: Cathepsin B activity was determined using a fluorometric assay kit from Abeam, Inc. (catalog ab65300; Cambridge, MA) as described by the manufacturer.

[3] = test system: brain BACE1; assay: Brain BACE1 activity after once-a-day oral gavage (fluorometric kit); format: in vivo; details: guinea pigs, once-a-day oral administration
Source text: as §1, §2, §3
The brain BRACE1 activity in guinea pigs was measured by Beta secretase activity was determined using a fluorometric assay kit from Abcam (ab65357) as described by the manufacturer.

[4] = test system: transgenic APPlon mice; assay: Morris water maze test, spatial memory deficit; format: in vivo; details: E64d-doped chow for 1 month or 3 months, either age group
Source text: Figure 16 is not descriptive of the claimed invention. Figure 16 graphically illustrates data showing the effects of AB-007 (E64d, loxistatin)-doped chow on the spatial memory deficit that develops in transgenic APPlon (London APP) mice, see above description, and e.g. Hook, et al. (2008) supra. The Morris water maze test was used to measure the latency period, which is the time it takes an animal to swim to a submerged and not visible platform after having been previously trained as to the location of that platform. The longer the latency period, the poorer the spatial memory. Two groups of animals were evaluated, young and old mice.

[5] = 5-week stability test at 60°C; format: physicochemical; details: read-out: compound remaining
[6] = test system: brain Aβ40 and brain Aβ42; details: guinea pig, oral 10 mg/kg/day, 7 days
[7] = test system: brain Aβ(40) and Aβ(42); details: for Summary Aβ 40 Mean % Control / Summary Aβ 42 Mean % Control: 1 & 3 month feeding; for Aβ 40 Difference / Aβ 42 Difference: control minus treated; for Aβ 40 % Control / Aβ 42 % Control: per cent reduction in Aβ
[8] = cited from earlier work
[9] = cited from earlier work; remark: listed apart in the source
[10] = high oral doses (500 mg/kg and 1 g/kg), cited from earlier work
[11] = maximal intravenous or oral doses, rats; cited from earlier work
[12] = healthy human volunteers, oral, about 5 mg/kg/day, single or continuous 1 week; cited from earlier work
[13] = rats, cited from earlier work
[14] = oral, dogs; cited from earlier work
[15] = Old mice, 1 month feeding E64d doped chow
[16] = Old mice, 3 month feeding E64d doped chow
[17] = Young mice, 1 month feeding E64d doped chow
[18] = Young mice, 3 month feeding E64d doped chow

CCOC(=O)[C@H]1O[C@@H]1C(=O)N[C@@H](CC(C)C)C(=O)NCCC(C)C (relative stereo) [AB-007, (2S,3S)-trans-epoxysuccinyl-L-leucyl-amido-3-methylbutane ethyl ester]
CSF Aβ [1]: dose response reduction
CSF Aβ(42) [1]: dose response reduction
brain Aβ(40) [1]: dose response reduction
brain Aβ(42) [1]: dose response reduction
plasma Aβ(40) [1]: dose response reduction
plasma Aβ(42) [1]: dose response reduction
brain cathepsin B activity [2]: dose response reduction
brain BACE1 activity [3]: increase
mean latency period relative to age-matched controls [4]: significantly reduced
remaining at 840 h [5]: 99%
reduction of brain Aβ40 relative to vehicle treated controls [6]: 42%
reduction of brain Aβ42 relative to vehicle treated controls [6]: 42%
Summary Aβ 40 Mean % Control ([7]; All Ages): 64%
Summary Aβ 42 Mean % Control ([7]; All Ages): 52%
Summary Aβ 40 Mean % Control ([7]; Old mice): 65%
Summary Aβ 42 Mean % Control ([7]; Old mice): 42%
Aβ 40 Mean treated [7, 15]: 87.1
Aβ 42 Mean treated [7, 15]: 31.9
Aβ 40 Difference ([7]; Old mice, 1 month feeding): 142.9
Aβ 42 Difference ([7]; Old mice, 1 month feeding): 26.6
Aβ 40 % Control ([7]; Old mice, 1 month feeding): 62%
Aβ 42 % Control ([7]; Old mice, 1 month feeding): 45%
Aβ 40 Mean treated [7, 16]: 91.2
Aβ 42 Mean treated [7, 16]: 61.3
Aβ 40 Difference ([7]; Old mice, 3 month feeding): 195.3
Aβ 42 Difference ([7]; Old mice, 3 month feeding): 38.5
Aβ 40 % Control ([7]; Old mice, 3 month feeding): 68%
Aβ 42 % Control ([7]; Old mice, 3 month feeding): 39%
Summary Aβ 40 Mean % Control ([7]; Young mice): 60%
Summary Aβ 42 Mean % Control ([7]; Young mice): 62%
Aβ 40 Mean treated [7, 17]: 47.7
Aβ 42 Mean treated [7, 17]: 5.5
Aβ 40 Difference ([7]; Young mice, 1 month feeding): 47.5
Aβ 42 Difference ([7]; Young mice, 1 month feeding): 6
Aβ 40 % Control ([7]; Young mice, 1 month feeding): 50%
Aβ 42 % Control ([7]; Young mice, 1 month feeding): 52%
Aβ 40 Mean treated [7, 18]: 38.7
Aβ 42 Mean treated [7, 18]: 4.5
Aβ 40 Difference ([7]; Young mice, 3 month feeding): 87.4
Aβ 42 Difference ([7]; Young mice, 3 month feeding): 11.7
Aβ 40 % Control ([7]; Young mice, 3 month feeding): 69%
Aβ 42 % Control ([7]; Young mice, 3 month feeding): 72%
drug accumulation ([8]; humans): No drug accumulation
total urinary excretion rate ([8]; humans): about 30%
conversion in the gut to E64c (loxistatin acid) ([8]; oral): rapidly and completely converted
oral dose absorbed ([9]; primary absorption site small intestine): about 60%
concentration in all other organs, including the brain ([9]; radioactive AB-007): corresponding to the plasma concentration or concentrations lower than plasma
kidneys concentration relative to plasma concentration ([9]; radioactive AB-007): ~12 times
liver concentration relative to plasma concentration ([9]; radioactive AB-007): about 25 times
time of maximum tissue concentration after administration ([9]; radioactive AB-007): 0.5 h
effect on the cardiovascular system [10]: no effect
effect on the central nervous system ([10]; sedation, mild inhibition of pentetrazol-induced seizure): depress the central nervous system
influence on vision or hearing [11]: do not influence
hematological tests, blood chemistry, urinalyses [12]: no changes
pulse, blood pressure, body temperature, grip force, electrocardiogram, physician observations [12]: no change
LD50 ([13]; oral): over 10,000 mg/kg
hepatic injury ([13]; does not occur in other species): hepatic injury seen in rats
LD50 [14]: > 5,000 mg/kg

[2H]C([2H])([2H])C([2H])(CCNC(=O)[C@H](CC(C)C)NC(=O)[C@H]1O[C@@H]1C(=O)OCC)C([2H])([2H])[2H] [Compound E64d7]
CSF Aβ [1]: dose response reduction
CSF Aβ(42) [1]: dose response reduction
brain Aβ(40) [1]: dose response reduction
brain Aβ(42) [1]: dose response reduction
plasma Aβ(40) [1]: dose response reduction
plasma Aβ(42) [1]: dose response reduction
brain cathepsin B activity [2]: dose response reduction
brain BACE1 activity [3]: increase
